Test results from patent publication US20210017607A1, “Methods of Predicting Responsiveness to Cancer Therapies” (The University of Chicago, priority 2019, published 2021).

Key:
Format in all cases: cell-based, mouse
[1] = tested on: B6-Myc (STING^hi) cancer cells; experiment: IFNβ1 ELISA of supernatants after DMXAA treatment; conditions: 36 hours
Procedure: (§1) FIGS. 15A-15E. Differential STING pathway activation within B6-Myc (STING^hi) cell lines and BMDMs relative to Myc-CAP (STING^lo) cells. (15A, 15B) The indicated cancer cell lines and BMDMs were treated with DMXAA (mouse STING agonist) for 1 and 24 hours, respectively, and protein extracts were interrogated for cGAS/STING pathway activation with the indicated antibodies by Western blotting. Supernatants were collected from for IFNβ1 ELISA following 36 hours of treatment with DMXAA (15C, 15D). (15E) Syngeneic Myc-CAP (STING^lo) tumors were processed into single cell suspensions and used for phycoerythrin-based sorting of CD45+ cellular fractions. Equal numbers of cells from these fractions were stimulated with DMXAA. Supernatants were collected at 36 hrs for detection of IFNB1 by ELISA; n=3 independent experiments; Significance/p-values were calculated by one-way Anova (for 15C & 15E) or paired t-test (for 15D); TAM=tumor associated macrophage; s.e.=short exposure; l.e.=long exposure.
Cancer Cell Lines. Transgenic c-myc” prostate tumor derived cell line, Myc-CAP) (STING^lo) was obtained from ATCC and passaged in 1× DMEM (without phenol red) containing 10% fetal bovine serum, 1% penicillin-streptomycin and 2% L-glutamine. The corresponding c-myc^hi line derived from a C57BL6 generated background were grown for in vitro studies, using same culture conditions as for Myc-CAP. […]

[2] = tested on: cGAS/STING signaling pathway components p-TBK1 and p-IRF3; experiment: Western blotting of cGAS/STING pathway activation
Procedure: as §1
Western Blot Analysis. RIPA and T-PER buffer (Thero Scientific®), supplemented with protease (Roche®) and HALT phosphatase inhibitor cocktail (Roche®), were used for preparation of lysates from in vitro cell lines and whole tumor chunks, respectively. For western blotting, the following antibodies were used from Cell Signaling Technology®: Polyclonal rabbit anti-mouse-phospho-γH2AX, phospho-AKT, total AKT, cGAS, STING, phospho-IRF3, total IRF3, phospho-TBK1, total TBK1, PTEN, β-actin and GAPDH. Monoclonal anti-mouse PAR antibody was obtained from Trevigen®. Images of scanned blots were processed using ADOBE Photoshop®.

[3] = tested on: prostate-specific PTEN^−/−p53^−/− GEMM tumors; experiment: Ex vivo GEMM tumor suspensions, IFNβ1 ELISA; conditions: DMXAA 50 μg/mL, 36 hours
Procedure: FIG. 39. […] Tumors from prostate-specific PTEN^−/−p53^−/− GEMM tumors were processed into single cell suspensions and treated with indicated drugs (DMXAA at 50 μg/mL, Buparlisib at 1000 nM, Rucaparib at 500 nM). At 36 hours supernatants were collected for ELISA based detection of IFNβ1; n=1 independent experiment.
Ex vivo Assays. Subcutaneous tumors were isolated by gentle mechanical dissociation in the presence of 1×RPMI (supplemented with 10% fetal bovine serum, 1% penicillin-streptomycin and 2% L-glutamine). 1×ACK was used for RBC lysis. Single cell suspensions were washed twice with media, by centrifuging at 500×g for 5 min at 4° C. and quantified using 0.1% […] solution. Cells were seeded at a concentration 0.2-0.5 million cells/mL and treated with indicated drugs singly or in combination for 36 hours. DMXAA (positive control) was used at indicated concentration. Supernatants from treated BMDMs were collected at the end of 36 hours and processed as per ELISA protocol for detection of cytokines/chemokines.

PI3K = experiment: In vitro target inhibition by western blotting (PI3K/AKT)
B6-Myc (STING^hi) cells = experiment: p-γH2AX foci (DNA DSBs) by confocal microscopy; conditions: 36 hours; rucaparib 500 nM, buparlisib 1 μM
Procedure: FIGS. 17A-17C. PARPi/PI3Ki combination induces intracellular DNA DSBs, and proportionate release of MV surface-associated DNA DSBs from B6-Myc (STING^hi) cancer cells, without affecting cellular viability. B6-Myc (STING^hi) cells were treated with indicated drugs singly or in combination for 36 hours. (17A) Cells were stained with anti-mouse specific p-γH2AX antibody and fluorescently labeled secondary antibody for determination of DNA DSBs, which were quantified by confocal microscopy. (17B) Protein extracts from cells in (17A) were analyzed for the indicated pharmacodynamic biomarkers by western blotting. […] Significance/p-values were calculated by one-way ANOVA.
Confocal Microscopy. […] Staining for DNA DSBs was done with anti-mouse primary antibody specific for phospho-γH2AX (1:500 dilution, Cell Signaling Technology and secondary anti-rabbit IgG antibody conjugated to AF647 (1:1000-1:2000 dilution in 1×PBS, Thermo Fisher Scientific®). Anti-mouse specific β-actin conjugated to Phycoerythrin (PE, Thermo Fisher Scientific®) was used to stain the cytoskeleton. All staining procedures were done at 4° C. for 30 minutes. Cells were then washed 3 times with 1×PBS and imaged immediately. All images were collected using an Olympus Fluoview® 1000 using a 100× oil objective. Acquired images were analyzed by ImageJ software, developed at NIH.

Cc1ccc2c(=O)c3cccc(CC(=O)O)c3oc2c1C [DMXAA, 5,6-Dimethylxanthenone-4-acetic Acid]
fold induction in IFN-β levels [1]: 48.1 fold
activation of p-TBK1 and p-IRF3 ([2]; B6-Myc (STING^hi) cells): activated
activation of c-GAS/STING signaling pathway ([2]; BMDMs): activated the c-GAS/STING signaling pathway
activation of p-TBK1 and p-IRF3 ([2]; Myc-CAP (STING^lo) cells): not observed
STING activation (IFNβ1 ELISA) [3]: induces STING activation

Nc1cc(C(F)(F)F)c(-c2cc(N3CCOCC3)nc(N3CCOCC3)n2)cn1 [buparlisib]
concentration that achieved complete target inhibition in vitro (PI3K; B6-Myc cells (FIG. 17B)): 1 µM
target inhibitory concentration (PI3K; BMDMs (FIG. 30A)): 1
activation of the PI3K/AKT pathway within BMDMs (PI3K; BMDMs co-cultured with R-MVs, 24 hours): inhibits activation of the PI3K/AKT pathway
complete target inhibition concentration (PI3K; Myc-CAP cells (FIG. 29B)): 1 µM

CNCc1ccc(-c2[nH]c3cc(F)cc4c3c2CCNC4=O)cc1 [rucaparib]
DNA double-strand breaks (p-γH2AX foci) (B6-Myc (STING^hi) cells): did not show a statistically significant increase
